Consider 70 compounds from the RepoRT retention time repository (doi:10.1038/sdata.2014.29).

Each structure is given as a SMILES string.

The nature of this data set: RP, Waters ACQUITY UPLC HSS T3, 150 × 2 mm, 1.7 µm, 30 °C, 0.4 mL/min, estimated dead time 0.75 min; A: water + 0.2% formic acid; B: 2% water + 98% acetonitrile + 0.2% formic acid; gradient (min/%B) 0/0 2.5/0 7.5/10 10/100 12/100 18/0 25/0. Conditions: stereoisomer not certain.
For the compound `Nc1ncnc2c1ncn2[C@@H]1O[C@H](CSCC[C@H]([NH3+])C(=O)[O-])[C@@H](O)[C@H]1O` [S-adenosyl-L-homocysteine], the LC retention time is 1.92 min.
In the case of `O=C(O)C=Cc1ccc(O)c(OC2OC(CO)C(O)C(O)C2O)c1` (stereo not given) [Caffeic acid 3-glucoside], the LC retention time was 8.96 min.
Regarding `O=C(O)CCCCCCCC(=O)O` [azelaic acid], the LC retention time is 9.61 min.
Turning to `CC(C=CC1(O)C(C)=CC(=O)CC1(C)C)=CC(=O)O` (single isomer, unassigned; (+)) [(+)-abscisic acid], the LC retention time was 10.1 min.
On to `C[C@H]([NH3+])C(=O)[O-]` [L-alanine], for which the LC retention time was 1.44 min.
With `O=C(O)CCCCC1CCSS1` [(R)-lipoic acid], the LC retention time was 2.28 min.
As for `O=C(O)CC(=O)O` [malonic acid], the LC retention time was 2.64 min.
With `O=P(O)(O)OC(CO)CO` [glycerol 2-phosphate], the LC retention time was 1.53 min.
For the compound `O=P([O-])([O-])OP(=O)([O-])[O-]` [diphosphate(4-)], the LC retention time was 1.47 min.
In the case of `NC(Cc1c[nH]c2ccccc12)C(=O)O` (stereo not given) [tryptophan] it was 8.87 min; in that of `C=CC=C(O)C(=O)O` [cis-2-hydroxypenta-2,4-dienoic acid], 1.68 min; in that of `CC[C@H](C)[C@H](N)C(=O)O` [L-isoleucine], 5.34 min.
In the case of `CC(=O)OC(C)(C)C1CCC2(C)COC3(C)C=COC23C1` (stereo not given) [AC1L9CQ2], the LC retention time is 11.6 min.
As to `N#CCC(N)C(=O)O` (stereo not given) [3-cyanoalanine], the LC retention time is 1.51 min.
Consider `O=C(O)CCC(=O)O` [succinic acid], for which the LC retention time was 5.35 min.
For the compound `O=C(O)C=C(CC(=O)O)C(=O)O` [cis-aconitic acid], the LC retention time was 4.46 min.
`C[N+](C)(C)CC(=O)[O-]` [glycine betaine]: the LC retention time is 1.57 min.
`O=C(O)C=Cc1ccc(O)cc1` [4-coumaric acid]: the LC retention time was 8.99 min.
Consider `C#CC1(OC(C)=O)CCC2C3CCC4=CC(=O)CCC4C3CCC21C` (stereo not given) [norethindrone acetate], for which the LC retention time is 10.5 min.
As to `CS(=O)(=O)CCC(N)C(=O)O` (stereo not given) [methionine sulfone], the LC retention time was 1.9 min.
In the case of `CC1(C)SC2C(NC(=O)C(C(=O)O)c3ccccc3)C(=O)N2C1C(=O)O` (stereo not given) [carbenicillin], the LC retention time was 1.73 min.
For the compound `O=C(O)/C=C/c1ccc(O[C@@H]2O[C@H](CO)[C@@H](O)[C@H](O)[C@H]2O)cc1` [4-O-beta-D-glucosyl-4-coumaric acid], the LC retention time is 9.11 min.
As for `O=C(O)c1ccco1` [2-furoic acid], the LC retention time was 4.46 min.
In the case of `Nc1nc2c(ncn2C2OC(CO)C(O)C2O)c(=O)[nH]1` (stereo not given) [guanosine], the LC retention time was 6.32 min.
For `O=C(O)C(=O)[C@H](O)COP(=O)(O)O` [(R)-3-hydroxy-2-oxo-4-phosphonooxybutanoic acid], the LC retention time was 9.3 min.
Take `O=C1CC[C@@H](C(=O)O)N1` [5-oxo-L-proline]: the LC retention time is 4.72 min.
With `O=c1[nH]cnc2nc[nH]c12` [hypoxanthine], the LC retention time was 1.75 min.
Turning to `O=C(O)CC(O)C(=O)O` (stereo not given) [malic acid], the LC retention time is 2.44 min.
As to `NC(CCC(=O)O)C(=O)O` (stereo not given) [glutamic acid], the LC retention time is 1.62 min.
Turning to `O=P(O)(O)OCC1OC(CO)(OC2OC(CO)C(O)C(O)C2O)C(O)C1O` (stereo not given) [sucrose 6(F)-phosphate], the LC retention time is 1.81 min.
In the case of `C[C@](O)(CO)[C@H](O)COP(=O)(O)O` [2-C-methyl-D-erythritol 4-(dihydrogen phosphate)] it was 1.64 min; in that of `CC(=O)OC1CC(C)C(C=O)C2(O)C1C(C)(C)CC2(C)C=O` (stereo not given) [botrydial], 13.5 min.
On to `C=CC#CC#CC1=CC=C(C#CC)SS1` [thiarubrine A], for which the LC retention time is 1.97 min.
For the compound `Nc1ncnc2c1ncn2C1OC(CO)C(O)C1O` (stereo not given) [adenosine], the LC retention time was 6.01 min.
Consider `O=C([O-])C(O)C(O)C(O)C(O)C(=O)[O-]` (stereo not given) [glucarate(1-)], for which the LC retention time was 1.57 min.
As for `CC(C(=O)[O-])=C(C)C(=O)[O-]` [dimethylmaleate(2-)], the LC retention time was 1.67 min.
In the case of `CC(C)CC(=O)C(=O)O` [4-methyl-2-oxopentanoic acid] it was 9.46 min; in that of `OCC=Cc1ccc(O)cc1` [4-hydroxycinnamyl alcohol], 1.62 min; in that of `O[C@@H]1c2c(sc3ccccc23)C=C[C@@H]1O` (relative stereo) [cis-1,2-dihydroxy-1,2-dihydrodibenzothiophene], 1.64 min.
For `O=C(C=Cc1ccc(O)c(O)c1)OC1CC(O)(C(=O)O)CC(O)C1O` (stereo not given) [chlorogenic acid], the LC retention time was 9.09 min.
In the case of `O=c1ccn(C2OC(CO)C(O)C2O)c(=O)[nH]1` (stereo not given) [uridine], the LC retention time was 5.79 min.
With `O=C1O[C@H](CO)[C@@H](O)[C@H](O)[C@H]1O` [D-glucono-1,5-lactone], the LC retention time was 2.02 min.
In the case of `O=C(O)c1ccc(O)cc1` [4-hydroxybenzoic acid] it was 9.88 min; in that of `O=C(O)[C@H](O)[C@@H](O)[C@H](O)[C@H](O)COP(=O)(O)O` [6-phospho-D-gluconic acid], 1.55 min.
As to `OCC1OC(OC2(COC3(CO)OC(CO)C(O)C3O)OC(CO)C(O)C2O)C(O)C(O)C1O` (stereo not given) [1-kestose], the LC retention time was 1.88 min.
On to `O=C[C@H](O)[C@H](O)CO` [D-erythrose], for which the LC retention time is 1.67 min.
As for `O=C(O)C1OC(O)C(O)C(O)C1O` (stereo not given) [Glucuronic Acid], the LC retention time was 1.61 min.
Regarding `O=C(O)CCC(=O)C(=O)O` [2-oxoglutaric acid], the LC retention time was 3.04 min.
On to `OCC1OC(OC2OC(CO)C(O)C(O)C2O)C(O)C(O)C1O` (stereo not drawn) [alpha,alpha-trehalose], for which the LC retention time was 1.58 min.
Take `CC1=CC2=CC(C)CC23OC(=C(C)C3=O)CC(C)(C)C=CC1=O` (stereo not given) [jatrophone]: the LC retention time is 10.2 min.
`COC(=O)[C@@H](N)Cc1ccc(O)cc1` [methyl L-tyrosinate]: the LC retention time is 10.7 min.
In the case of `O=C(O)C1OC(OC2C(C(=O)O)OC(O)C(O)C2O)C(O)C(O)C1O` (stereo not given) [digalacturonic acid], the LC retention time was 1.58 min.
In the case of `O=C(COP(=O)(O)O)Cc1cnc[nH]1` [3-(imidazol-4-yl)-2-oxopropyl dihydrogen phosphate] it was 2.09 min.
In the case of `O=C(CO)COP(=O)(O)O` [glycerone phosphate] it was 9.3 min.
Take `O=C(O)C1CCCCN1` (stereo not given) [pipecolic acid]: the LC retention time was 2.79 min.
On to `N[C@@H](CC(=O)O)C(=O)O` [L-aspartic acid], for which the LC retention time was 1.53 min.
Regarding `COc1c2ccoc2c(OC)c2oc(=O)ccc12` [isopimpinellin], the LC retention time is 1.66 min.
With `CC(=O)NC=CSC1=C(C(=O)O)N2C(=O)C(C(C)OS(=O)(=O)O)C2C1` (stereo not given) [epithienamycin E], the LC retention time was 4.43 min.
In the case of `O=C(O)C(O)CO` (stereo not given) [glyceric acid] it was 1.92 min; in that of `O=C(O)[C@H](O)[C@@H](O)[C@H](O)CO` [D-xylonic acid], 1.69 min.
In the case of `O=C(CO)CO` [glycerone] it was 3.02 min.
Take `NC(=O)NC1NC(=O)NC1=O` (stereo not given) [allantoin]: the LC retention time was 1.76 min.
As for `CCCCCCCCCCCCOCCOCCOCCOCCOCCO` [pentaethylene glycol monododecyl ether], the LC retention time was 11.8 min.
`O=C(O)c1nc2[nH]c(=O)[nH]c(=O)c2[nH]1` [xanthine-8-carboxylic acid]: the LC retention time is 4.71 min.
Take `CC(=O)C(=O)O` [pyruvic acid]: the LC retention time was 4.6 min.
In the case of `O=C(O)[C@H](O)[C@@H](O)[C@H](O)[C@H](O)CO` [D-gluconic acid] it was 1.61 min; in that of `O=C(O)C=CC(=O)O` [fumaric acid], 2.46 min; in that of `O=C(O)CCCCCCC(=O)O` [suberic acid], 9.43 min.
Consider `NC(Cc1cnc[nH]1)C(=O)O` (stereo not given) [histidine], for which the LC retention time was 1.43 min.
In the case of `NC(=O)C[C@H](N)C(=O)O` [L-asparagine] it was 1.48 min.
